Like-named read-outs stand apart in the source and are kept apart here.
Key:
[1] = target: T1, His tagged PTPN2 (TC45) protein (Homo sapiens, UniProt P17706); test: Mobility shift assay used to determine potency of PTPN2 inhibitors; format: biochemical; settings: enzyme 0.5 nM, substrate 2 μM; read-out: PTPN2 MSA IC50
T1 construct: made in house
T1 sequence (P17706 with tags, fused parts or gaps isoform P17706-2): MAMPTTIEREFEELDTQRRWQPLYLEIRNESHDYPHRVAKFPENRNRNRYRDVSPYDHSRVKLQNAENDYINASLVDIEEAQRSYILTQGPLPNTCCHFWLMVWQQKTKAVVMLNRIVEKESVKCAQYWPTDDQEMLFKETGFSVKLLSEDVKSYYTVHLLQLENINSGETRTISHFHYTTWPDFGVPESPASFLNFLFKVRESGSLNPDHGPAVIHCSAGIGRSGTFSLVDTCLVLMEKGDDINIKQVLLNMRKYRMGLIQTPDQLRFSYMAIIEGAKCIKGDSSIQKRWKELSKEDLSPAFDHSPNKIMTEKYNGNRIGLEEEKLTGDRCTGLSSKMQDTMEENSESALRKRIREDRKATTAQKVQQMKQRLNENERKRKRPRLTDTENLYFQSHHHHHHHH
Outline: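 Enzyme (0.5 nM) preincubated with compound (12-point, 1:3 dilution) 10 min at room temperature in 50 mM HEPES pH 7.5, 1 mM EGTA, 10 mM EDTA, 0.01% Tween 20, 2 mM DTT; OG488-labelled phospho-insulin-receptor peptide substrate (2 μM) added for 10 min, then quenched. Microfluidic mobility shift (ex 488/em 530 nm) gave % conversion; IC50 from % inhibition.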

[2] = tested on: B16F10 mouse melanoma cells; test: B16F10 IFNγ-induced cellular growth inhibition assay; format: cell-based; settings: B16-F10, with 0.5 ng/mL IFNγ
Outline: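 B16F10 cells grown in DMEM+10% FBS, with or without 0.5 ng/mL final mouse IFNγ, and dosed in triplicate at 100 μM to 0.001 μM final (0.1% DMSO). Confluence imaged every 6 h for 5 days; percent growth inhibition versus DMSO/with-IFNγ control taken once DMSO/no-IFNγ wells exceeded 95% confluence, giving IC50.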

[3] = tested on: IFNγ-induced STAT1 phosphorylation in CD14+ monocytes; test: Human whole blood pSTAT1 proximal pharmacodynamic (PD) assay; format: cell-based; settings: Monocyte, 3 hours compound, IFNγ 20 minutes
Procedure: Example 230: Human Whole Blood pSTAT1 Proximal Pharmacodynamic (PD) Assay Human blood samples were acquired through internal AbbVie Inc's blood donation program in accordance with AbbVie's Occupational Safety and Health Administration protocols. Blood was collected by venipuncture into sodium heparin coated vacutainer tubes and kept at room temperature for no longer than 1 hour prior to the experiment initiation. Human blood samples (90 μL) were added to the individual wells of 96-well plates containing 10 μL of 10× working stock solutions of increasing concentrations of compounds to achieve final concentrations ranging from 0.025 μM to 500 μM and incubated for 3 hours at 37° C. To induce STAT1 phosphorylation the samples were then treated with recombinant human IFNγ (R&D Systems, Catalog^#285-IF, Minneapolis, Minn.; 100 nM final concentration) for 20 minutes, and 3 μL/well BV421 labeled anti-CD14 surface antibody (Biolegend, San Diego, Calif., Catalog^#301830) was added for 45 minutes before fixation and red blood cell lysis was performed with BD Phosflow Lyse/Fix buffer (BD Biosciences, San Jose, Calif., Catalog^#558049). Cells were subsequently permeabilized on ice by the addition of BD Perm III buffer (BD Biosciences, San Jose, Calif., Catalog^#558050) and stored at -80° C. until use. Before staining, the cells were washed with PBS containing 0.1% BSA. Optim/zed concentrations of BUV395 labeled anti-CD45 (BD Biosciences, San Jose, Calif., Catalog^#563792) and PE labeled anti-phospho-STAT1 ([…]; Invitrogen, Carlsbad, Calif., Catalog^#12-9008-42) antibodies were added to the cell suspensions and incubated for 2 hours. The cells were washed with PBS containing 0.1% BSA and analyzed on a BD LSRFortessaTM X20 flow cytometer (BD Biosciences, San Jose, Calif.) using BD FACSDivaTM software. The data was analyzed using FlowJo V10 analysis software (Flow Jo LLC, Ashland, Oreg.). The amount of STAT phosphorylation was measured by the mean fluorescence intensity (MFI) of pSTAT1 in CD14+monocytes. Compound dose-response curves were determined using a four-parameter logistic-nonlinear regression model from which half maximal effective concentrations (EC50) were calculated. All statistical analyses utilized GraphPad software (San Diego, Calif.).

[4] = tested on: Pan T cells isolated from C57BL6 splenocytes; test: T cell function assays (IFNγ and TNFα in supernatants); format: cell-based, mouse; settings: 0.3 μM compound, 3 days
Procedure: Example 231: T Cell Function Assays Pan T cells were isolated from C57BL6 splenocytes using a MACS Pan T cell isolation kit II (Miltenyi Biotec, Auburn, Calif.) according to the manufacturer's instructions. Isolated T cells (200,000 cells/well in a 96 well flat-bottom plate) were cultured in RPMI 1640 supplemented with 10% FBS, […] 2-mercaptoethanol, 100 U/mL penicillin, and 100 μg/mL streptomycin, and incubated with 0.3 μM compound or DMSO in duplicates. After 1 hour, mouse T cell activator CD3/CD28 Dynabeads (ThermoFisher Scientific, Waltham, Mass.) were added at a 1:5 beads to cells ratio to stimulate the T cells for 3 days. T cells with or without compound were incubated in the absence of T cell activator beads to evaluate if compounds nonspecifically stimulate the T cells. After 3 days of stimulation, supernatants were collected and IFNγ and TNFα in supernatants were assessed using an MSD V-plex assay (Meso Scale Discovery, Rockville, Md.).

[5] = read-out: B16F10 Growth Inhibition IC50

IC50 ([2]; read-out: B16F10 GI IC50)	IC50 [2, 5]	EC50 [3]	Compound	IC50 [1]	IFNγ [pg/mL] anti-CD3/CD28 ([4]; anti-CD3/CD28 stimulation)	TNFα [pg/mL] anti-CD3/CD28 ([4]; anti-CD3/CD28 stimulation)	IFNγ [pg/mL] no stimulation ([4]; no stimulation)	TNFα [pg/mL] no stimulation ([4]; no stimulation)
< 1 µM	< 0.05 µM	400 nM	O=C1CN(c2c(O)cc3c(c2F)C[C@H](NCCCC(F)(F)F)CC3)S(=O)(=O)N1 (single isomer, unassigned) [Compound 146]	1 to 10 nM				
< 1 µM	< 0.05 µM	2400 nM	O=C1CN(c2c(O)cc3c(c2F)C[C@H](NCCC2CCCC2)CC3)S(=O)(=O)N1 [Compound 200, 5-{(7R)-7-[(2-cyclopentylethyl)amino]-1-fluoro-3-hydroxy-5,6,7,8-tetrahydronaphthalen-2-yl}-1λ^6,2,5-thiadiazolidine-1,1,3-trione]					
	5.8 µM	38000 nM	CC(C)(O)CCOc1ccc2cc(O)c(N3CC(=O)NS3(=O)=O)c(F)c2c1 [Compound Y]		67.2 pg/mL	32.5 pg/mL	1.2 pg/mL	1.0 pg/mL
	17.8 µM	> 500000 nM	CCC1CCc2cc(O)c(N3CC(=O)NS3(=O)=O)c(F)c2C1 (stereo not drawn) [Compound Z]					
